Here are results for 9 compounds from patent US8163768B2, “1,4-dihydropyridine-fused heterocycles, process for preparing the same, use and compositions containing them” (Aventis Pharma S.A.., priority 2005, dated 2012).

SMILES strings stand for the structures.

Experiment [1] addresses T1, Aurora2 (Aurora-A) (Homo sapiens, UniProt O14965).
T1 construct: Aurora-A: the full length recombinant protein including an N-terminal poly-histidine tail has been expressed in E. coli; poly-histidine (N); made in house; host or cells: E. coli
T1 sequence (O14965 1-403): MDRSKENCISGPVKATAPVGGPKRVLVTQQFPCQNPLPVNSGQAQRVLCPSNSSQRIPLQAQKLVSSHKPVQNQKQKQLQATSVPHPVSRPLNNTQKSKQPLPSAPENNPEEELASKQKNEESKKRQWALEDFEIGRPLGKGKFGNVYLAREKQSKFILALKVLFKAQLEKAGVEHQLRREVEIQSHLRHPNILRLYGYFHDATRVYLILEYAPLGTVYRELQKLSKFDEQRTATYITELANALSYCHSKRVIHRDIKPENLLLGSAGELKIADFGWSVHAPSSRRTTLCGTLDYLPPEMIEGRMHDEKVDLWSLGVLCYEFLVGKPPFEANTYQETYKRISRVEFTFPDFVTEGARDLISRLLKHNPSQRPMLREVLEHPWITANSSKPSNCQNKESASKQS
In words: Aurora 2 (Aurora A) kinase radioactivity scintillation assay using nickel chelate Flash plates. The experiment is classed as biochemical. The note with it: 10 nM Aurora-A, 500 nM NuMA substrate, 1 μM ATP with [33P] ATP, 10 mM MgCl2, 30 minutes, 37° C. The procedure: (§1) Aurora 1 and 2 (Respectively. Aurora B and A)
(§2) The inhibitory effect of compounds with respect to the Aurora 1 and 2 kinases is determined with a radioactivity scintillation assay using nickel chelate.
(§3) The kinase activity of Aurora is measured by the phosphorylation of NuMA-histidine substrate in the presence of radiolabelled ATP ([^33P] ATP) using 96 well Flash plates where the nickel-chelate is linked to the surface of the microplate. The amount of ^33P incorporated to the substrate NuMA is proportional to the aurora activity.
(§4) The Flash plates used are nickel-chelate 96 well plates (Perkin Elmer, model SMP107).
(§5) The products to be evaluated are incubated in a 100 μl reaction volume per well in the presence of 10 nM of Aurora-B or Aurora-A, 500 nM of NuMA substrate in the following buffer: 50 mM of NaCl, 5 mM MgCl2, (Aurora-B) or 10 mM MgCl2 (Aurora-A) and 1 mM of DTT at 37° C.
(§6) 80 μL of enzyme/substrate incubation buffer is distributed in each well, followed by 10 μL of solution of compound to be measured with various concentrations. The reaction is started by adding 1 μM of ATP (final concentration) containing 0.2 μCi of [^33P] ATP (10 μL). After 30 minutes of incubation the reaction is stopped by removal of the reaction mixture and each well is washed twice with 300 μl of buffer Tris/HCl. The radioactivity is measured in each well using a Packard Top count scintillation counter instrument.
(§7) The enzymatic activity is expressed as counts per minute obtained in 30 minutes after subtraction of the background noise (reaction medium without enzyme). The measurement is expressed as percentage of inhibition of Aurora activity versus the control. To generate IC50 values, compounds of the invention are tested at different concentration and the percentage of inhibition are plotted as function of compound concentration, IC50s are calculated using the Xlfit 4 curve fitting software.

For experiment [2], the target named is T2, Aurora1 (Aurora-B) (Homo sapiens, UniProt Q96GD4).
T2 construct: Aurora-B: the full length protein (His tagged in N-terminal) has been co expressed in SF9 cells; poly-histidine (N); made in house; host or cells: SF9 cells
T2 sequence (Q96GD4 whole entry, species assumed): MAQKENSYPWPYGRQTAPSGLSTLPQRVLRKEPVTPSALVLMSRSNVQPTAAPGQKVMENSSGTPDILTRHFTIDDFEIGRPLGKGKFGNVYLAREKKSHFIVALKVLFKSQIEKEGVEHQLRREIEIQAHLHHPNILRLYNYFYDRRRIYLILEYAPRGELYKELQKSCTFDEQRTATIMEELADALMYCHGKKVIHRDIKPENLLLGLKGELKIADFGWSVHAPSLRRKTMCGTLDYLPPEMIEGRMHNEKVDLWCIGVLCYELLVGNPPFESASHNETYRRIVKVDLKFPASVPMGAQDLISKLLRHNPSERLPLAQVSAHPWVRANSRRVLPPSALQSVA
T2 sequence (Q9NQS7 821-918 partner limits assumed, species assumed): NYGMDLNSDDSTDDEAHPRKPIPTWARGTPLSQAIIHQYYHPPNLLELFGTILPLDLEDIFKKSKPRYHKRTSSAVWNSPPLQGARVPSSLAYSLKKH
In words: Aurora 1 (Aurora B) kinase radioactivity scintillation assay using nickel chelate Flash plates. It is filed as biochemical. Conditions: 10 nM Aurora-B (co expressed with C3 fragment of INCEP), 500 nM NuMA substrate, 1 μM ATP with [33P] ATP, 5 mM MgCl2, 30 minutes, 37° C. The procedure: as §1, §2, §3, §4, §5, §6, §7

As for `O=C1CC(c2ccco2)CC2=C1C(c1ccc(Sc3nc4ccccc4[nH]3)o1)c1c[nH]nc1N2` (stereo not drawn) [Example 34, 4-[5-(1H-Benzimidazol-2-ylsulfanyl)-furan-2-yl]-7-furan-2-yl-2,4,6,7,8,9-hexahydro-pyrazolo[3,4-b]quinolin-5-one; compound with trifluoro-acetic acid], the IC50 – broadly, the concentration needed to halve the response being measured – in experiment [1] was 23 nM; in experiment [2], 5 nM.
In the same order, the values of `O=C1CC(c2ccc3c(c2)OCO3)CC2=C1C(c1ccc(Sc3nc4ccccc4[nH]3)o1)c1c[nH]nc1N2` (stereo not drawn) [Example 35, 7-Benzo[1,3]dioxol-5-yl-4-[5-(1H-benzimidazol-2-ylsulfanyl)-furan-2-yl]-2,4,6,7,8,9-hexahydro-pyrazolo[3,4-b]quinolin-5-one; compound with trifluoro-acetic acid] are 19 nM and 5 nM.
In the same order, the values of `COc1ccc(C2CC(=O)C3=C(C2)Nc2n[nH]cc2C3c2ccc(Sc3nc4ccccc4[nH]3)o2)cc1OC` (stereo not drawn) [Example 36, 4-[5-(1H-Benzimidazol-2-ylsulfanyl)-furan-2-yl]-7-(3,4-dimethoxy-phenyl)-2,4,6,7,8,9-hexahydro-pyrazolo[3,4-b]quinolin-5-one; compound with trifluoro-acetic acid] are 41 nM and 11 nM.
For `CCCCCC1CC(=O)C2=C(C1)Nc1n[nH]cc1C2c1ccc(Sc2nc3ccccc3[nH]2)o1` (stereo not drawn) [Example 37, 4-[5-(1H-Benzimidazol-2-ylsulfanyl)-furan-2-yl]-7-pentyl-2,4,6,7,8,9-hexahydro-pyrazolo[3,4-b]quinolin-5-one; compound with trifluoro-acetic acid], the IC50 in experiment [1] stood at 29 nM; in experiment [2], 7 nM.
In the same order, the values of `O=C1CC(c2ccccc2F)CC2=C1C(c1ccc(Sc3nc4ccccc4[nH]3)o1)c1c[nH]nc1N2` (stereo not drawn) [Example 38, 4-[5-(1H-Benzimidazol-2-ylsulfanyl)-furan-2-yl]-7-(2-fluoro-phenyl)-2,4,6,7,8,9-hexahydro-pyrazolo[3,4-b]quinolin-5-one; compound with trifluoro-acetic acid] are 18 nM and 7 nM.
Regarding `COc1ccccc1C1CC(=O)C2=C(C1)Nc1n[nH]cc1C2c1ccc(Sc2nc3ccccc3[nH]2)o1` (stereo not drawn) [Example 39, 4-[5-(1H-Benzimidazol-2-ylsulfanyl)-furan-2-yl]-7-(2-methoxy-phenyl)-2,4,6,7,8,9-hexahydro-pyrazolo[3,4-b]quinolin-5-one; compound with trifluoro-acetic acid], the IC50 was 134 nM in experiment [1] and 38 nM in experiment [2].
In the same order, the values of `O=C1CCCCC2=C1C(c1ccc(Sc3nc4ccccc4[nH]3)o1)c1c[nH]nc1N2` (stereo not drawn) [Example 41, 4-[5-(1H-Benzoimidazol-2-ylsulfanyl)-furan-2-yl]-4,6,7,8,9,10-hexahydro-2H-1,2,10-triaza-cyclohepta[f]inden-5-one; compound with trifluoro-acetic acid] are 29 nM and 10 nM.
In the same order, the values of `O=C1OCC2=C1C(c1ccc(Sc3nc4ccccc4[nH]3)o1)c1c[nH]nc1N2` (stereo not drawn) [Example 42, 4-[5-(1H-Benzoimidazol-2-ylsulfanyl)-furan-2-yl]-2,4,7,8-tetrahydro-6-oxa-1,2,8-triaza-s-indacen-5-one; compound with trifluoro-acetic acid] are 508 nM and 17 nM.
In the same order, the values of `O=C1CN(CC(O)CN2CCCCC2)CC2=C1C(c1ccc(Sc3nc4ccccc4[nH]3)o1)c1c[nH]nc1N2` (stereo not drawn) [Example 45, 4-[5-(1H-Benzimidazol-2-ylsulfanyl)-furan-2-yl]-7-(2-hydroxy-3-piperidin-1-yl-propyl)-2,4,6,7,8,9-hexahydro-pyrazolo[3,4-b]-1,7-naphthyridin-5-one; compound with trifluoro-acetic acid] are 887 nM and 43 nM.
